According to patent US11851409B2, “Deuterated benzylaminopyrimidinedione derivatives and use thereof” (QINGDAO JI'AO PHARMACEUTICAL TECHNOLOGY CO., LTD, priority 2019, dated 2023):

Assay: Pharmacokinetic test in SD rats
Assay type: in vivo
Conditions: male, plasma, rat, iv, 1 mg/kg; for Vd: read-out: Vss
Protocol: Experimental animals: 4 healthy adult male SD rats (purchased from Hunan SJA Laboratory Animal Co., Ltd) were divided into two groups, […].
Drug preparation: a certain amount of the compound of the present disclosure or MYK461 is weighted, and 10% DMSO, 10% Kolliphor HS15 and 80% saline are added to prepare the compound solution with target concentration.
Administration and sample collection: the animals fasted for 12 h before administration, ate in 3 h after administration, and were administered by intravenous administration (IV, 1 mg/kg) through the posterior limb vein of SD rats and orally intragastric administration (PO, 5 mg/kg), respectively. Then, blood samples were collected from the tail vein of rats at time points of 0, 0.083, 0.25, 0.5, 1, 2, 4, 6, 8, and 24 h, respectively, and the blood volume was about 200-400 μL/time point. After collecting whole blood at each time point, the blood samples were placed in K2EDTA anticoagulant test tubes, which were placed in an incubator with ice packs for preservation. All the samples were centrifuged at 4600 r/min at 4° C. for 5 min within 15 min to obtain plasma. The concentrations of different compounds in rat plasma after administration were determined by LC/MS/MS method. Pharmacokinetic parameters were calculated according to the drug concentration-time curve.

Structure (SMILES)	AUC(0-inf) [ng·h/mL]	AUC(0-t) [ng·h/mL]	Cmax [ng/mL]	MRT inf [h]	Tmax [min]	clearance [mL/min/kg]	half-life [h]	Vd [L/kg]
[2H]c1ccc([C@H](C)Nc2cc(=O)n(C(C)C)c(=O)[nH]2)cc1 [Example 2, (S)-3-isopropyl-6-((1-(phenyl-4-d)ethyl)amino)pyrimidine-2,4(1H,3H)-dione]	4670	3290	643	18.8	4.98	3.57	13.9	4.03
[2H]c1c([2H])c([2H])c([C@H](C)Nc2cc(=O)n(C(C)C)c(=O)[nH]2)c([2H])c1[2H] [Example 1, (S)-3-isopropyl-6-((1-(phenyl-d5)ethyl)amino)pyrimidine-2,4(1H,3H)-dione]	6830	3670	883	31.1	4.98	2.44	22.6	4.56
CC(C)n1c(=O)cc(N[C@@H](C)c2ccccc2)[nH]c1=O [MYK461, reference compound]	3090	2420	393	15.1	4.98	5.39	11.6	4.87
[2H]C([2H])([2H])C(n1c(=O)cc(N[C@@H](C)c2ccccc2)[nH]c1=O)C([2H])([2H])[2H] [Example 5, (S)-6-((1-phenylethyl)amino)-3-(propane-2-yl-1,1,1,3,3,3-d6)pyrimidine-2,4 (1H,3H)-dione]	5690	4450	982	14.8	4.98	2.93	11.3	2.6
